Test results as given in ChEMBL document CHEMBL5233255, “Natural and nature-inspired stilbenoids as antiviral agents” (Eur J Med Chem, 2020).
Converted amounts (≈) assume the structure as drawn.

Columns and labels:
[1] = tested on: Influenza A virus; assay: Antiviral activity against influenza A virus A/PR/8/34 (H1N1) infected in MDCK cells preincubated 2 hrs followed by viral infection and measured after 24 hrs by MTT assay; type: functional, organism-based
[2] = Cytotoxicity against MDCK cells assessed as reduction in cell viability incubated for 72 hrs by MTT assay; type: toxicity, cell-based, Canis lupus familiaris; details: dog
[3] = tested on: Human immunodeficiency virus 1; assay: Antiviral activity against HIV-1 infected in human leucocytes assessed as inhibition of viral replication; type: functional; details: Human immunodeficiency virus 1, Leucocyte
[4] = tested on: Human immunodeficiency virus 1; assay: Antiviral activity against HIV-1 infected in human macrophages assessed as inhibition of viral replication; type: functional; details: Human immunodeficiency virus 1, Macrophage
[5] = tested on: Human immunodeficiency virus 1; assay: Antiviral activity against HIV-1 GB8 infected in human JM1 cells; type: functional, organism-based; details: Human immunodeficiency virus 1, GB8, JM1
[6] = tested on: Influenza A virus; assay: Antiviral activity against influenza A virus A/Guangdong/243/72 ([…]) infected in MDCK cells assessed as inhibition of virus-induced cytopathic effect; type: functional, organism-based
[7] = tested on: Influenza A virus; assay: Antiviral activity against influenza A virus A/PR/8/34 (H1N1) infected in human A549 cells assessed as inhibition of RANTES production incubated for 48 hrs by ELISA; type: functional, organism-based; details: A549, 48 h
[8] = Cytotoxicity against human A549 cells assessed as reduction in cell viability by Alamar blue assay; type: toxicity, cell-based
[9] = tested on: Vero C1008; assay: Cytotoxicity against African green monkey Vero E6 cells infected with Middle East respiratory syndrome coronavirus assessed as reduction in cell viability at 250 uM by LDH assay relative to control; type: toxicity, cell-based; details: chlorocebus sabaeus, vero c1008, 250 µM
[10] = Cytotoxicity against human C8166 cells assessed as inhibition of cell growth by MTT assay; type: toxicity, cell-based
[11] = tested on: Human immunodeficiency virus 1; assay: Antiviral activity against HIV-1 infected in human C8166 cells assessed as inhibition of viral replication; type: functional, organism-based; details: Human immunodeficiency virus 1, C8166
[12] = Therapeutic index, ratio of CC50 for cytotoxicity against human C8166 cells to EC50 for antiviral activity against HIV-1 infected in C8166 cells; type: toxicity, cell-based; details: read-out: Ratio CC50/EC50
[13] = Cytotoxicity against HEK293T cells; type: toxicity, cell-based, HEK-293T; details: human, read-out: TC50 (the source's name)
[14] = tested on: Human immunodeficiency virus 1; assay: Antiviral activity against HIV-1 infected in HEK293T cells; type: functional, organism-based; details: Human immunodeficiency virus 1, HEK-293T
[15] = tested on: rhinovirus A1B; assay: Antiviral activity against HRV1B infected in human HeLa cells assessed as reduction in cytopathic effect by SRB assay; type: functional, organism-based; details: Rhinovirus A
[16] = tested on: Human immunodeficiency virus 1; assay: Antiviral activity against HIV-1 RF infected in human JM1 cells; type: functional, organism-based; details: Human immunodeficiency virus 1, RF
[17] = tested on: Human alphaherpesvirus 1; assay: Antiviral activity against HSV-1 KOS infected in MDCK cells assessed as inhibition of viral replication measured after 24 hrs by plaque reduction assay; type: functional, organism-based; details: Human alphaherpesvirus 1, KOS
[18] = tested on: Human alphaherpesvirus 2; assay: Antiviral activity against HSV-2 UW 268 infected in MDCK cells assessed as inhibition of viral replication measured after 24 hrs by plaque reduction assay; type: functional, organism-based; details: Human alphaherpesvirus 2, UW 268, MDCK
[19] = Selectivity index, ratio of TC50 for cytotoxicity against HEK293T cells to EC50 for antiviral activity against HIV-1 infected in HEK293T cells; type: toxicity, cell-based; details: human
[20] = tested on: Human alphaherpesvirus 2; assay: Antiviral activity against HSV-2 VR-734 infected in human HeLa cells; type: functional, organism-based; details: Human alphaherpesvirus 2, VR-734, HeLa
[21] = tested on: Human alphaherpesvirus 2; assay: Antiviral activity against HSV-2 VR-734 infected in African green monkey Vero cells assessed as inhibition of viral replication measured after 72 hrs by MTT assay; type: functional, organism-based; details: Human alphaherpesvirus 2, VR-734, Vero
[22] = tested on: Human alphaherpesvirus 2; assay: Antiviral activity against HSV-2 VR-734 infected in human NCI-H1299 cells; type: functional, organism-based; details: Human alphaherpesvirus 2, VR-734, NCI-H1299

O=C(O)c1ccccc1/N=N/c1ccc(O)cc1O
EC50 [1]: 7.28 mg/L (≈ 28.2 µM)
CC50 at 72 h [2]: > 100 mg/L

CC(=O)CC(=O)Nc1ccc(/C=C/c2ccc(-n3nccc3O)cc2S(=O)(=O)O)c(S(=O)(=O)O)c1
EC90 [3]: 0.5 µM
EC90 [4]: 0.5 µM

O=S(=O)(O)c1cc(N=C=S)ccc1CCc1ccc(N=C=S)cc1S(=O)(=O)O
IC50 [5]: 40 µM

Oc1ccc(/C=C/c2cc(O)cc(O)c2)cc1 [RESVERATROL]
IC50 [6]: > 22.2 mg/L
EC50 [7]: 28.4 µM
CC50 [8]: 52.6 µM
Activity [9]: 25%
CC50 [10]: 35.6 mg/L (≈ 156 µM)
EC50 [11]: 4.37 mg/L (≈ 19.1 µM)
selectivity ratio [12]: 8.14
CC50 [13]: > 300 µM
EC50 [14]: > 75 µM
IC50 [15]: 29.7 µM

O=S(=O)(O)c1cc(N=C=S)ccc1/C=C/c1ccc(N=C=S)cc1S(=O)(=O)O
IC50 [16]: 20 µM

O=C1C=C[C@]23[C@H](C1)Oc1cccc4c1[C@H]2[C@H](c1cc(O)cc2c1[C@@H]4[C@H](c1ccc(O)cc1)O2)[C@@H](c1cc(O)cc2c1[C@@H](c1cc(O)cc(O)c1)[C@H](c1ccc(O)cc1)O2)[C@@H]3c1ccc(O)cc1
IC50 [17]: 2.8 µM
IC50 [18]: 6.8 µM

Oc1cc(O)cc(/C=C/c2ccc(O)c(O)c2)c1 [PICEATANNOL]
CC50 [13]: > 400 µM
EC50 [14]: 21.4 µM
selectivity ratio [19]: > 18.7

Oc1ccc([C@H]2c3c(O)cc(O)cc3[C@@H]3c4c(cc(O)cc4[C@H]4[C@@H](c5ccc(O)cc5)c5c(O)cc(O)cc5[C@H]5c6c(cc(O)cc6[C@H]24)O[C@@H]5c2ccc(O)cc2)O[C@H]3c2ccc(O)cc2)cc1
IC50 [20]: 3.2 µM
IC50 [21]: 3.2 µM
IC50 [22]: 3.2 µM
